According to patent US20050245399A1, “Pyrazole derivatives as herbicidal compositions containing them” (ISHIHARA SANGYO KAISHA, LTD., priority 2004, published 2005):

Columns and labels:
Assay type in all cases: in vivo
[1] = tested on: barnyardgrass (Echinochloa crus-galli L.): ECHCG; assay: Test Example 1 pre-emergence herbicidal activity, ECHCG; settings: Rate 63 g a.i./ha, visually observed 20th to 23rd day after application
Procedure, shortened: (§1)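 Pre-emergence soil spray: wettable powder or emulsifiable concentrate diluted in water (500 L/ha) applied one day after sowing in upland field soil. Visual growth-control rating (%) on days 20–23, 0 = untreated control, 100 = complete kill.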

[2] = tested on: crabgrass (Digitaria sanguinalis L.): DIGSA; assay: Test Example 1 pre-emergence herbicidal activity, DIGSA; settings: Rate 63 g a.i./ha, visually observed 20th to 23rd day after application
Procedure, shortened: as §1

[3] = tested on: green foxtail (Setaria viridis L.): SETVI; assay: Test Example 1 pre-emergence herbicidal activity, SETVI; settings: Rate 63 g a.i./ha, visually observed 20th to 23rd day after application
Procedure, shortened: as §1

[4] = tested on: redroot pigweed (Amaranthus retroflexus L.): AMARE; assay: Test Example 1 pre-emergence herbicidal activity, AMARE; settings: Rate 63 g a.i./ha, visually observed 20th to 23rd day after application
Procedure, shortened: as §1

[5] = tested on: prickly sida (Sida spinosa L.): SEDSP; assay: Test Example 1 pre-emergence herbicidal activity, SIDSP; settings: Rate 63 g a.i./ha, visually observed 20th to 23rd day after application
Procedure, shortened: as §1

[6] = tested on: velvetleaf (Abutilon theophrasti): ABUTH; assay: Test Example 1 pre-emergence herbicidal activity, ABUTH; settings: Rate 63 g a.i./ha, visually observed 20th to 23rd day after application
Procedure, shortened: as §1

[7] = tested on: rice (Oryza sativa L.): ORYSA; assay: Test Example 1 pre-emergence herbicidal activity, ORYSA; settings: Rate 63 g a.i./ha, visually observed 20th to 23rd day after application
Procedure, shortened: as §1

[8] = tested on: wheat (Triticum aestivum L.): TRZAX; assay: Test Example 1 pre-emergence herbicidal activity, TRZAX; settings: Rate 63 g a.i./ha, visually observed 20th to 23rd day after application
Procedure, shortened: as §1

[9] = tested on: corn (Zea mays L.): ZEAMX; assay: Test Example 1 pre-emergence herbicidal activity, ZEAMX; settings: Rate 63 g a.i./ha, visually observed 20th to 23rd day after application
Procedure, shortened: as §1

[10] = tested on: soybean (Glycine max Merr.): GLXMA; assay: Test Example 1 pre-emergence herbicidal activity, GLXMA; settings: Rate 63 g a.i./ha, visually observed 20th to 23rd day after application
Procedure, shortened: as §1

[11] = tested on: barnyardgrass (Echinochloa crus-galli L.), ECHCG; assay: Test Example 2 post-emergence (foliage treatment) herbicidal activity, ECHCG; settings: 63 g a.i./ha
Procedure, shortened: (§2)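 Visual growth-control score (0 = untreated, 100 = complete kill) taken 20th-23rd day after a foliar spray. Seedlings were grown in upland field soil and treated at leaf stage: barnyardgrass 1.1-2.1, crabgrass 1.0-2.0, redroot pigweed 0.1-1.5, rice 1.0-2. Spray volume was 500 L/ha water with 0.1% (v/v) agricultural spreader.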

[12] = tested on: crabgrass (Digitaria sanguinalis L.), DIGSA; assay: Test Example 2 post-emergence (foliage treatment) herbicidal activity, DIGSA; settings: 63 g a.i./ha
Procedure, shortened: as §2

[13] = tested on: green foxtail (Setaria viridis L.), SETVI; assay: Test Example 2 post-emergence (foliage treatment) herbicidal activity, SETVI; settings: 63 g a.i./ha
Procedure, shortened: (§3)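 Foliar spray of formulated compound (500 L/ha dilution water, 0.1% v/v spreader) onto young potted plants at defined leaf stages. Scored 0-100% by visual inspection 20-23 d post-spray.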

[14] = tested on: redroot pigweed (Amaranthus retroflexus L.), AMARE; assay: Test Example 2 post-emergence (foliage treatment) herbicidal activity, AMARE; settings: 63 g a.i./ha
Procedure, shortened: as §2

[15] = tested on: prickly sida (Sida spinosa L.), SIDSP; assay: Test Example 2 post-emergence (foliage treatment) herbicidal activity, SIDSP; settings: 63 g a.i./ha
Procedure, shortened: as §3

[16] = tested on: velvetleaf (Abutilon theophrasti), ABUTH; assay: Test Example 2 post-emergence (foliage treatment) herbicidal activity, ABUTH; settings: 63 g a.i./ha
Procedure, shortened: as §3

[17] = tested on: rice (Oryza sativa L.), ORYSA; assay: Test Example 2 post-emergence (foliage treatment) herbicidal activity, ORYSA; settings: 63 g a.i./ha
Procedure, shortened: as §2

[18] = tested on: wheat (Triticum aestivum L.), TRZAX; assay: Test Example 2 post-emergence (foliage treatment) herbicidal activity, TRZAX; settings: 63 g a.i./ha
Procedure, shortened: as §3

[19] = tested on: corn (Zea mays L.), ZEAMX; assay: Test Example 2 post-emergence (foliage treatment) herbicidal activity, ZEAMX; settings: 63 g a.i./ha
Procedure, shortened: as §3

[20] = tested on: soybean (Glycine max Merr.), GLXMA; assay: Test Example 2 post-emergence (foliage treatment) herbicidal activity, GLXMA; settings: 63 g a.i./ha
Procedure, shortened: as §3

[21] = tested on: barnyardgrass (Echinochiloa oryzicola: ECHOR); assay: Test Example 3 water application herbicidal activity (paddy), ECHOR; settings: 63 g a.i./ha, water application under submerged condition at 0.5 leaf stage, visually observed 14th day after application; 0 = untreated control, 100 = complete kill
Procedure, shortened: (§4)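 Flooded paddy-soil pots in greenhouse; ECHOR and SCPJO sown, SAGPY tubers planted a day later, compound applied into 3–4 cm water at weeds' 0.5-leaf stage. Rice transplanted at 2-leaf stage, treated day 4 after transplanting. Visual growth control 0–100% at 14 days (weeds) and 21 days (rice) after application.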

[22] = tested on: japanese bulrush (Scirpus juncoides: SCPJO); assay: Test Example 3 water application herbicidal activity (paddy), SCPJO; settings: 63 g a.i./ha, water application under submerged condition at 0.5 leaf stage, visually observed 14th day after application; 0 = untreated control, 100 = complete kill
Procedure, shortened: as §4

[23] = tested on: japanese ribbon wapato (Sagittaria pygmaea: SA GPY); assay: Test Example 3 water application herbicidal activity (paddy), SAGPY; settings: 63 g a.i./ha, water application under submerged condition, tubers planted, visually observed 14th day after application; 0 = untreated control, 100 = complete kill
Procedure, shortened: as §4

[24] = tested on: rice (Oryza sativa L.: ORYSA); assay: Test Example 3 water application herbicidal activity (paddy), transplanted rice ORYSA; settings: 63 g a.i./ha, water application 4th day after transplantation of 2 leaf stage rice, visually observed 21st day after application; 0 = untreated control, 100 = complete kill
Procedure, shortened: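 Compound, as diluted wettable powder or emulsifiable concentrate, was pipetted into flood water at a set active-ingredient dose. Weeds were treated at 0.5-leaf stage after sowing or tuber planting; 2-leaf rice 4 days post-transplant. Control scored visually, 0 untreated to 100 complete kill, weeds day 14, rice day 21.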

COC(=O)Nc1c(OC)c(Cl)cc(F)c1-c1nn(C)c(OC(F)F)c1Cl [Compound 1-62]
100%: Pre-emergence Herbicidal Activity ECHCG (growth controlling degree) [1] | Pre-emergence Herbicidal Activity DIGSP (growth controlling degree) [2] | Pre-emergence Herbicidal Activity SETVI (growth controlling degree) [3] | Pre-emergence Herbicidal Activity AMARE (growth controlling degree) [4] | Pre-emergence Herbicidal Activity SIDSP (growth controlling degree) [5] | Pre-emergence Herbicidal Activity ABUTH (growth controlling degree) [6] | growth controlling degree, ECHCO [11] | growth controlling degree, DIGSP [12] | growth controlling degree, SETVI [13] | growth controlling degree, AMARE [14] | growth controlling degree, SIDSP [15] | growth controlling degree, ABUTH [16] | growth controlling degrees (%) ECHOR [21] | growth controlling degrees (%) SCPJO [22] | growth controlling degrees (%) SAGPY [23]
70%: growth controlling degrees (%) ORYSA [24]
30%: Pre-emergence Herbicidal Activity ZEAMX (growth controlling degree) [9] | growth controlling degree, TRZAX [18]
80%: Pre-emergence Herbicidal Activity ORYSA (growth controlling degree) [7] | growth controlling degree, ORYSA [17] | growth controlling degree, ZEAMX [19] | growth controlling degree, GLXMA [20]
20%: Pre-emergence Herbicidal Activity GLXMA (growth controlling degree) [10]
60%: Pre-emergence Herbicidal Activity TRZAX (growth controlling degree) [8]

COc1c(Cl)cc(F)c(-c2nn(C)c(OC(F)F)c2Cl)c1NC(=O)OCc1ccccc1Cl [Compound 1-63]
90%: growth controlling degree, DIGSP [12]
100%: Pre-emergence Herbicidal Activity AMARE (growth controlling degree) [4] | growth controlling degree, ECHCO [11] | growth controlling degree, SETVI [13] | growth controlling degree, AMARE [14] | growth controlling degree, SIDSP [15] | growth controlling degree, ABUTH [16] | growth controlling degrees (%) ECHOR [21]
40%: Pre-emergence Herbicidal Activity DIGSP (growth controlling degree) [2] | growth controlling degree, TRZAX [18] | growth controlling degrees (%) ORYSA [24]
70%: growth controlling degree, ZEAMX [19] | growth controlling degrees (%) SCPJO [22] | growth controlling degrees (%) SAGPY [23]
30%: Pre-emergence Herbicidal Activity ECHCG (growth controlling degree) [1] | Pre-emergence Herbicidal Activity SETVI (growth controlling degree) [3] | Pre-emergence Herbicidal Activity ABUTH (growth controlling degree) [6]
0%: Pre-emergence Herbicidal Activity ORYSA (growth controlling degree) [7] | Pre-emergence Herbicidal Activity ZEAMX (growth controlling degree) [9] | Pre-emergence Herbicidal Activity GLXMA (growth controlling degree) [10]
10%: Pre-emergence Herbicidal Activity TRZAX (growth controlling degree) [8]
60%: growth controlling degree, ORYSA [17] | growth controlling degree, GLXMA [20]
20%: Pre-emergence Herbicidal Activity SIDSP (growth controlling degree) [5]
